Reference: patent US9556113B2, “Combination uses of dichloroacetate and oxamate, and their prodrugs, for cancer treatment” (The South Dakota Board of Regents, priority 2014, dated 2017)

Tests used:
[1] = Chemical stability (hydrolysis) in aqueous acetonitrile, HPLC; assay type: physicochemical; details: water:acetonitrile 1:1, ambient temperature, in 4 hours, 0.4 mg/mL
Protocol: FIG. 15 provides a graph of the hydrolysis of prodrug 1 (FIG. 15A) and prodrug 2 (FIG. 15B) in aqueous acetonitrile solution. Prodrug 1 or prodrug 2 (0.42 mg/mL) in aqueous acetonitrile (H2O:CH3CN=1:1) was stirred at ambient temperature. Aliquots were withdrawn and analyzed for the prodrug by HPLC as described in the experimental section.
Once the two prodrugs were obtained, their chemical stability and metabolic stability were determined. The chemical stability of prodrug 1 and prodrug 2 was determined in aqueous acetonitrile at ambient temperature. The prodrug (0.4 mg/mL) a mixture of water and acetonitrile (1:1) at ambient temperature. Aliquots were taken from the solution periodically and checked by HPLC for the presence of the prodrug. The HPLC analysis was carried out on a Beckman Coulter HPLC (System Gold) system, controlled by a system controller (32 Karat workstation with PC), equipped with a 125 gradient pumping module, a 508 autosampler with a sample cooling system, and a 168 photodiode array detector. The HPLC conditions employed an Apollo C18 column (250 mm×4.6 mm i.d., 5 μm) (Alltech, Deerfield, Ill.) and aqueous acetonitrile (50% with 0.1% TFA) as the mobile phase. The flow rate was 0.8 mL/min and the detection wavelength was 210 nm. Under the condition, the retention time for prodrugs 1 and 2 was 9.83 and 9.87 minutes respectively. […]

[2] = system: HPV+E6E7 Ras tumor (E6/E7/Ras MOEs cells); test: Tumor response to cisplatin/radiation therapy (CRT), HPV positive HNSCC mouse model; assay type: in vivo, C57Bl/6 mice; details: for tumor growth with CRT compared to DCA plus oxamate (FIG. 8A/19): prodrug 7.6 mg/mouse i.p. weekdays, control DCA 6 mg/mouse + oxamate 2 (2.2) mg/mouse, all with CRT
Protocol: FIG. 7 illustrates the effects of DCA plus oxamate on tumor growth (A) or on survival (B) with HPV+ model of HNSCC in wild-type C57Bl/6 mice. All mice received 3 rounds of cisplatin (0.132 mg/mouse) plus radiation (8 Gy/mouse) treatment (Tx) at weekly intervals starting […] after tumor initiation. Mice receiving DCA (6 mg/mouse) plus oxamate (15 mg/mouse) were treated every weekday, starting with the first chemoradiation treatment by i.p. injection.
FIG. 8 illustrates a comparison of prodrugs to DCA plus oxamate on tumor growth (A) or on survival (B) with HPV+ model of HNSCC in wild-type C57Bl/6 mice. All mice received 3 rounds of CRT [cisplatin (0.132 mg/mouse) plus radiation (8 Gy/mouse) treatment (Tx) at weekly intervals starting 11 days after tumor initiation]. Mice receiving DCA (6 mg/mouse) plus oxamate (2.2 mg/mouse) were treated every weekday starting with the first chemoradiation treatment by i.p. injection. Mice treated with AT-N4-001 or AT-N4-002 prodrugs (7.6 mg/mouse) were treated on the same schedule as mice treated with DCA+oxamate.
FIG. 18. The effects of DCA, oxamate, DCA plus oxamate on the responses of HPV+E6E7 Ras tumor to CRT. One million E6/E7/Ras MOEs cells were injected subcutaneously into the rear leg of wild-type C57Bl/6 mice. After 11 days, a treatment with DCA (6 mg/mouse) and oxamate (15 mg/mouse) were injected daily by i.p. on weekdays for the remainder of the experiment. All mice received three rounds of treatment with CRT (0.132 mg/mouse cisplatin and 8 Gy radiation, weekly starting at day 11). Tumor volume is mm^3.
FIG. 19 depicts the effects of DCA plus oxamate vs the effects of prodrug 1 or prodrug 2 on the responses of HPV+E6E7 Ras tumor to CRT. Tumors were initiated by injecting 0.5×10^6 E6/E7/Ras MOEs cells. After 11 days, a treatment with DCA (6 mg/mouse) plus oxamate (2 mg/mouse), or prodrug 1 (7.6 mg/mouse), or prodrug 2 (7.6 mg/mouse) was initiated daily by i.p. on weekdays. The doses of DCA and oxamate were equal molar equivalents as would be released from the prodrugs. All mice received three rounds of treatment with CRT (0.132 mg/mouse cisplatin and 8 Gy radiation, weekly starting at day 11). Tumor volume is in mm^3.
The effects of various treatments on tumor responses were carried out by examining whether the treatment could improve tumor's response to CRT with a HPV positive HNSCCs mouse model. CRT is a standard treatment for HPV-positive HNSCC in the clinic (46). […] Applicants also used this model to investigate the effects of lactate on CRT-induced immune-mediated cancer clearance (46) and DCA's effect on the tumor's response to CRT (unpublished data). The literature reported dosages of DCA and oxamate were used (6,23,52,53)(41).
To study the effects of the prodrugs on tumor growth in vivo, C57Bl/6 immune-competent mice implanted with E6/E7/Ras MOEs cells were used as described previously (46). All experiments were performed in accordance with institutional and national guidelines and regulations with the protocol approved by the Animal Care and Use Committee at Sanford Research. Briefly, 1×10^6 tumor HPV+HNSCC cells were injected into the right subcutaneous flank of syngeneic male C57Bl/6 mice. Eleven days after tumor initiation, treatment was initiated daily on weekdays by i.p. injection of vehicle, DCA, Oxamate, DCA+oxamate, prodrug 1, or prodrug 2. All mice received three rounds of treatment with cisplatin/radiation therapy (CRT: 0.132 mg/mouse cisplatin and 8 Gy radiation, weekly starting at day 11). Tumor dimensions were measured weekly to monitor growth. Mice with tumors reaching a volume of 3000 mm^3 or becoming substantially emaciated were euthanized.
To study the effects of the new prodrugs on tumor growth in vivo, C57Bl/6 immune-competent mice were used. Tumors were established on the right flank of the leg. After 11 days, treatment was initiated with daily i.p. injection of vehicle, AT-N4-001, or AT-N4-002. […]

[3] = system: HPV+ HNSCC tumor; test: Tumor growth and survival with chemoradiation in RAG-1 immune-deficient mice; assay type: in vivo, RAG-1 mice; details: in combination with chemoradiation
Protocol: FIG. 9 illustrates the effect of AT-N4-002 prodrug on tumor growth (A) and animal survival (B) in RAG-1 immune-deficient mice. Treatment conditions are the same as those described in FIG. 7.
To examine whether the prodrug AT-N4-002 also requires an immune response to control tumor growth, experiments were performed in RAG-1 mice. Based on our previous experience with DCA, we hypothesized that survival and tumor clearance would not be observed in these immune deficient mice following treatment with AT-N4-002. […] These immune-independent effects of AT-N4-002 on tumor growth in immune-deficient mice could be due to direct effects on tumor cell growth or cell death as described in Example 9, below.

## NC(=O)C(=O)OC(COC(=O)C(Cl)Cl)COC(=O)C(Cl)Cl [AT-N4-001, 2-(2-Amino-2-oxoacetoxy)propane-1,3-diyl bis(2,2-dichloroacetate)]
[1]
  hydrolysis of prodrug: about 10%
[2]
  tumor growth with CRT compared to DCA plus oxamate (FIG. 8A/19): initially reduced tumor growth compared to CRT+DCA+oxamate control, but this was not maintained over longer times
[2]; listed as prodrug 1
  tumor growth with CRT compared to DCA plus oxamate (FIG. 8A/19): about equally potent as that of the combination

## NC(=O)C(=O)OCC(COC(=O)C(Cl)Cl)OC(=O)C(Cl)Cl (stereo not drawn) [AT-N4-002, 3-(2-amino-2-oxoacetoxy)propane-1,2-diyl bis(2,2-dichloroacetate)]
[1]
  hydrolysis of prodrug: about 10%
[2]; CRT + 7.6 mg/mouse i.p.
  long-term survival (FIG. 8B): ~25%
[2]
  tumor growth with CRT compared to DCA plus oxamate (FIG. 8A/19): reduced average tumor growth compared to the control during the entire experiment
[2]; listed as Prodrug 2
  tumor growth with CRT compared to DCA plus oxamate (FIG. 8A/19): more effective than DCA plus oxamate during the entire experiment
[3]
  survival in RAG-1 mice (FIG. 9B): lengthened survival
  tumor growth in RAG-1 mice (FIG. 9A): slowed tumor growth
